# Measurements published in patent US8952024B2, “Herbicidal pyrimidone derivatives” (E I du Pont de Nemours and Company, priority 2009, dated 2015).
# Read-outs that look alike come from different tables or passages of the source.
# How the values were obtained:
# Assay in all cases: Test B pre-/postemergence plant response
# Type in all cases: in vivo
# [1] = test system: goosegrass (Eleusine indica); settings: Preemergence, 250 g ai/ha; 0 to 100 scale
# Method in brief: (§1)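 Pre-em in loam/sand; post-em at 1–4 leaf (2–18 cm) in peat mix. Solvent + surfactant formulation. Greenhouse 13–15 d; visual % control vs untreated, 0–100.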
# [2] = test system: pigweed (Amaranthus retroflexus); settings: for pest or weed control at 31 g/ha: 31 g ai/ha; for pest or weed control at 125 g/ha: 125 g ai/ha
# Method in brief: as §1
# [3] = test system: velvetleaf (Abutilon theophrasti); settings: for pest or weed control at 31 g/ha: 31 g ai/ha; for pest or weed control at 125 g/ha: 125 g ai/ha
# Method in brief: as §1
# [4] = test system: wheat (Triticum aestivum); settings: for plant injury at 31 g/ha: 31 g ai/ha; for plant injury at 125 g/ha: 125 g ai/ha
# Method in brief: as §1
# [5] = test system: morningglory (Ipomoea coccinea); settings: for pest or weed control at 125 g/ha: 125 g ai/ha
# Method in brief: as §1
# [6] = test system: ragweed (common ragweed, Ambrosia elatior); settings: for pest or weed control at 31 g/ha: 31 g ai/ha; for pest or weed control at 125 g/ha: 125 g ai/ha
# Method in brief: as §1
# [7] = test system: giant foxtail (Setaria faberii); settings: for pest or weed control at 31 g/ha: 31 g ai/ha; for pest or weed control at 125 g/ha: 125 g ai/ha
# Method in brief: as §1
# [8] = test system: downy bromegrass (Bromus tectorum); settings: for pest or weed control at 31 g/ha: 31 g ai/ha; for pest or weed control at 125 g/ha: 125 g ai/ha
# Method in brief: as §1
# [9] = test system: green foxtail (Setaria viridis); settings: for pest or weed control at 31 g/ha: 31 g ai/ha; for pest or weed control at 125 g/ha: 125 g ai/ha
# Method in brief: as §1
# [10] = 62 g ai/ha, postemergence, 0 is no effect, 100 is complete control, 13 to 15 days
# [11] = Preemergence, 250 g ai/ha, 0 to 100 scale
smiles,measurement,setting,value
"COCCCn1c(-c2ccccc2)ncc(C(=O)C2=C(O)CCCC2=O)c1=O [Compound 81, 5-[(2-hydroxy-6-oxo-cyclohexen-1-yl)carbonyl]-3-(3-methoxypropyl)-2-phenyl-4(3H)-pyrimidinone]",Goosegrass plant response rating,[1],100
same,Pigweed plant response rating (0 to 100 scale),[2]; [10],100
same,pest or weed control at 31 g/ha,"[2]; Amaranthus retroflexus, post-emergence, postemergence, scale 0 to 100, 0 is no effect, 100 is complete control, read-out: Plant response rating, Pigweed",98%
same,pest or weed control at 125 g/ha,"[2]; Amaranthus retroflexus, post-emergence, Postemergence, visual rating after 13 to 15 days, scale 0 (no effect) to 100 (complete control)",100%
same,pest or weed control at 250 g/ha,"[2]; Amaranthus retroflexus, post-emergence, Postemergence, 250 g ai/ha, scale 0 to 100 (0 no effect, 100 complete control), read-out: Plant response rating, Pigweed",100%
same,pest or weed control at 31 g/ha,"[2]; Amaranthus retroflexus, pre-emergence, Preemergence, scale 0 to 100 (0 no effect, 100 complete control), read-out: Plant response rating, Pigweed",100%
same,pest or weed control at 62 g/ha,"[2]; Amaranthus retroflexus, pre-emergence, Preemergence, 62 g ai/ha, scale 0 to 100 (0 no effect, 100 complete control), read-out: Plant response rating, Pigweed",100%
same,pest or weed control at 125 g/ha,"[2]; Amaranthus retroflexus, pre-emergence, Preemergence, scale 0 to 100, 0 no effect, 100 complete control, read-out: Plant response rating, Pigweed",100%
same,Pigweed plant response rating,[2]; [11],100
same,Velvetleaf plant response rating (0 to 100 scale),[3]; [10],100
same,pest or weed control at 31 g/ha,"[3]; Abutilon theophrasti, post-emergence, 360 h, postemergence, scale 0 to 100, 0 is no effect, 100 is complete control, read-out: Plant response rating, Velvetleaf",100%
same,pest or weed control at 125 g/ha,"[3]; Abutilon theophrasti, post-emergence, 360 h, Postemergence, visual rating after 13 to 15 days, scale 0 (no effect) to 100 (complete control)",100%
same,pest or weed control at 250 g/ha,"[3]; Abutilon theophrasti, post-emergence, 360 h, Postemergence, 250 g ai/ha, scale 0 to 100 (0 no effect, 100 complete control), read-out: Plant response rating, Velvetleaf",100%
same,pest or weed control at 31 g/ha,"[3]; Abutilon theophrasti, pre-emergence, 360 h, Preemergence, scale 0 to 100 (0 no effect, 100 complete control), read-out: Plant response rating, Velvetleaf",100%
same,pest or weed control at 62 g/ha,"[3]; Abutilon theophrasti, pre-emergence, 360 h, Preemergence, 62 g ai/ha, scale 0 to 100 (0 no effect, 100 complete control), read-out: Plant response rating, Velvetleaf",100%
same,pest or weed control at 125 g/ha,"[3]; Abutilon theophrasti, pre-emergence, 360 h, Preemergence, scale 0 to 100, 0 no effect, 100 complete control, read-out: Plant response rating, Velvetleaf",100%
same,Velvetleaf plant response rating,[3]; [11],100
same,Wheat plant response rating (0 to 100 scale),[4]; [10],20
same,Wheat plant response rating,[4]; [11],0
same,plant injury at 31 g/ha,"[4]; Triticum aestivum, post-emergence, postemergence, scale 0 to 100, 0 is no effect, 100 is complete control, read-out: Plant response rating, Wheat",5%
same,plant injury at 125 g/ha,"[4]; Triticum aestivum, post-emergence, Postemergence, visual rating after 13 to 15 days, scale 0 (no effect) to 100 (complete control)",25%
same,plant injury at 250 g/ha,"[4]; Triticum aestivum, post-emergence, Postemergence, 250 g ai/ha, scale 0 to 100 (0 no effect, 100 complete control), read-out: Plant response rating, Wheat",25%
same,plant injury at 31 g/ha,"[4]; Triticum aestivum, pre-emergence, Preemergence, scale 0 to 100 (0 no effect, 100 complete control), read-out: Plant response rating, Wheat",0%
same,plant injury at 62 g/ha,"[4]; Triticum aestivum, pre-emergence, Preemergence, 62 g ai/ha, scale 0 to 100 (0 no effect, 100 complete control), read-out: Plant response rating, Wheat",0%
same,plant injury at 125 g/ha,"[4]; Triticum aestivum, pre-emergence, Preemergence, scale 0 to 100, 0 no effect, 100 complete control, read-out: Plant response rating, Wheat",0%
same,Morningglory plant response rating (0 to 100 scale),[5]; [10],90
same,pest or weed control at 31 g/ha,"[5]; Ipomoea, post-emergence, 31 g ai/ha, postemergence, scale 0 to 100, 0 is no effect, 100 is complete control, read-out: Plant response rating, Morningglory",75%
same,pest or weed control at 125 g/ha,"[5]; Ipomoea, post-emergence, Postemergence, visual rating after 13 to 15 days, scale 0 (no effect) to 100 (complete control)",100%
same,pest or weed control at 250 g/ha,"[5]; Ipomoea, post-emergence, Postemergence, 250 g ai/ha, scale 0 to 100 (0 no effect, 100 complete control), read-out: Plant response rating, Morningglory",100%
same,pest or weed control at 62 g/ha,"[5]; Ipomoea, pre-emergence, Preemergence, 62 g ai/ha, scale 0 to 100, 0 no effect, 100 complete control, read-out: Plant response rating, Morningglory",65%
same,pest or weed control at 125 g/ha,"[5]; Ipomoea, pre-emergence, Preemergence, scale 0 to 100, 0 no effect, 100 complete control, read-out: Plant response rating, Morningglory",80%
same,Morningglory plant response rating,[5]; [11],95
same,Ragweed plant response rating (0 to 100 scale),[6]; [10],80
same,pest or weed control at 31 g/ha,"[6]; Ambrosia artemisiifolia, post-emergence, 360 h, postemergence, scale 0 to 100, 0 is no effect, 100 is complete control, read-out: Plant response rating, Ragweed",75%
same,pest or weed control at 125 g/ha,"[6]; Ambrosia artemisiifolia, post-emergence, 360 h, Postemergence, visual rating after 13 to 15 days, scale 0 (no effect) to 100 (complete control)",98%
same,pest or weed control at 250 g/ha,"[6]; Ambrosia artemisiifolia, post-emergence, 360 h, Postemergence, 250 g ai/ha, scale 0 to 100 (0 no effect, 100 complete control), read-out: Plant response rating, Ragweed",100%
same,pest or weed control at 31 g/ha,"[6]; Ambrosia artemisiifolia, pre-emergence, 360 h, Preemergence, scale 0 to 100 (0 no effect, 100 complete control), read-out: Plant response rating, Ragweed",60%
same,pest or weed control at 62 g/ha,"[6]; Ambrosia artemisiifolia, pre-emergence, 360 h, Preemergence, 62 g ai/ha, scale 0 to 100 (0 no effect, 100 complete control), read-out: Plant response rating, Ragweed",85%
same,pest or weed control at 125 g/ha,"[6]; Ambrosia artemisiifolia, pre-emergence, 360 h, Preemergence, scale 0 to 100, 0 no effect, 100 complete control, read-out: Plant response rating, Ragweed",90%
same,Ragweed plant response rating,[6]; [11],90
same,"Foxtail, Giant plant response rating (0 to 100 scale)",[7]; [10],85
same,"Foxtail, Giant plant response rating",[7]; [11],98
same,pest or weed control at 31 g/ha,"[7]; Setaria faberi, post-emergence, postemergence, scale 0 to 100, 0 is no effect, 100 is complete control, read-out: Plant response rating, Foxtail, Giant",75%
same,pest or weed control at 125 g/ha,"[7]; Setaria faberi, post-emergence, Postemergence, visual rating after 13 to 15 days, scale 0 (no effect) to 100 (complete control)",95%
same,pest or weed control at 250 g/ha,"[7]; Setaria faberi, post-emergence, Postemergence, 250 g ai/ha, scale 0 to 100 (0 no effect, 100 complete control), read-out: Plant response rating, Foxtail, Giant",98%
same,pest or weed control at 31 g/ha,"[7]; Setaria faberi, pre-emergence, Preemergence, scale 0 to 100 (0 no effect, 100 complete control), read-out: Plant response rating, Foxtail, Giant",60%
same,pest or weed control at 62 g/ha,"[7]; Setaria faberi, pre-emergence, Preemergence, 62 g ai/ha, scale 0 to 100, 0 no effect, 100 complete control, read-out: Plant response rating, Foxtail, Giant",75%
same,pest or weed control at 125 g/ha,"[7]; Setaria faberi, pre-emergence, Preemergence, scale 0 to 100, 0 no effect, 100 complete control, read-out: Plant response rating, Foxtail, Giant",85%
same,"Bromegrass, Downy plant response rating (0 to 100 scale)",[8]; [10],5
same,pest or weed control at 31 g/ha,"[8]; Bromus tectorum, post-emergence, postemergence, scale 0 to 100, 0 is no effect, 100 is complete control, read-out: Plant response rating, Bromegrass, Downy",5%
same,pest or weed control at 125 g/ha,"[8]; Bromus tectorum, post-emergence, Postemergence, visual rating after 13 to 15 days, scale 0 (no effect) to 100 (complete control)",30%
same,pest or weed control at 250 g/ha,"[8]; Bromus tectorum, post-emergence, Postemergence, 250 g ai/ha, scale 0 to 100 (0 no effect, 100 complete control), read-out: Plant response rating, Bromegrass, Downy",50%
same,pest or weed control at 31 g/ha,"[8]; Bromus tectorum, pre-emergence, Preemergence, scale 0 to 100 (0 no effect, 100 complete control), read-out: Plant response rating, Bromegrass, Downy",0%
same,pest or weed control at 62 g/ha,"[8]; Bromus tectorum, pre-emergence, Preemergence, 62 g ai/ha, scale 0 to 100, 0 no effect, 100 complete control, read-out: Plant response rating, Bromegrass, Downy",0%
same,pest or weed control at 125 g/ha,"[8]; Bromus tectorum, pre-emergence, Preemergence, scale 0 to 100, 0 no effect, 100 complete control, read-out: Plant response rating, Bromegrass, Downy",0%
same,"Bromegrass, Downy plant response rating",[8]; [11],0
same,"Foxtail, Green plant response rating (0 to 100 scale)",[9]; [10],85
same,"Foxtail, Green plant response rating",[9]; [11],100
same,pest or weed control at 31 g/ha,"[9]; Setaria viridis, post-emergence, postemergence, scale 0 to 100, 0 is no effect, 100 is complete control, read-out: Plant response rating, Foxtail, Green",5%
same,pest or weed control at 125 g/ha,"[9]; Setaria viridis, post-emergence, Postemergence, visual rating after 13 to 15 days, scale 0 (no effect) to 100 (complete control)",95%
same,pest or weed control at 250 g/ha,"[9]; Setaria viridis, post-emergence, Postemergence, 250 g ai/ha, scale 0 to 100 (0 no effect, 100 complete control), read-out: Plant response rating, Foxtail, Green",95%
same,pest or weed control at 31 g/ha,"[9]; Setaria viridis, pre-emergence, Preemergence, scale 0 to 100 (0 no effect, 100 complete control), read-out: Plant response rating, Foxtail, Green",80%
same,pest or weed control at 62 g/ha,"[9]; Setaria viridis, pre-emergence, Preemergence, 62 g ai/ha, scale 0 to 100, 0 no effect, 100 complete control, read-out: Plant response rating, Foxtail, Green",90%
same,pest or weed control at 125 g/ha,"[9]; Setaria viridis, pre-emergence, Preemergence, scale 0 to 100, 0 no effect, 100 complete control, read-out: Plant response rating, Foxtail, Green",100%
